Literature values in US20080247957A1, “Advanced drug delivery strategy and platform for minimally-invasive treatment of liver cancer” (Drexel University, priority 2007, published 2008).

Details: in the body

half life: less than 5 min
Structure (SMILES): O=c1[nH]cc(F)c(=O)[nH]1 [5 fluorouracil]
